Reference: patent publication US4749694A, “Novel lysine esters used as absorption” (Merck & Co., Inc., priority 1984, dated 1988)
Blank lines part the entries; values can stand above or below the molecule they belong to.

Tests used:
[1] = Absorption of sodium cefoxitin with or without alcohol-lysine esters in rats, percent bioavailability versus intravenous (Example 6); settings: for bioavailability: rat, serum, 2.5 mg; for effect as absorption promoter at 5 mg/dose (in words): 5 mg/dose level, comparison with hexadecyl lysinate
Description: Blood samples were collected, sodium cefoxitin assayed, and "area-under-the-curve"* calculated. Percent bioavailability was determined versus intravenous administration. Each animal received 2.5 mg sodium cefoxitin ±5.0 mg alcohol-lysine ester. From 3 to 12 animals were used for each compound.

[2] = Absorption of sodium cefoxitin with varying concentrations of hexadecyl lysinate in rats, percent bioavailability (Example 9); format: in vivo, rat; settings: for bioavailability: rat, serum, 2.5 mg, pH 6, rats, hexadecyl lysinate 0 mg/body, 2.5 mg sodium cefoxitin, pH 6
Description: Percent bioavailability was determined versus intravenous administration. Each animal received 2.5 mg sodium cefoxitin with varying amounts of hexadecyl lysinate.

[3] = Absorption of cytarabine with or without hexadecyl lysinate in rats, percent bioavailability versus intravenous (Example 8); settings: rat, in vivo, 2.5 mg, pH 6, rats, 2.5 mg cytarabine ± 5.0 mg hexadecyl lysinate, 250 μl, pH 6, versus intravenous
Description: The absorption of cytarabine, an antineoplastic and antiviral agent, was tested in rats employing aqueous formulations of cytarabine and hexadecyl lysinate. The compounds were administered in a total volume of 250 μl at pH 6. Both rectal and duodenal sites in the intestine were tested. Blood samples were collected, cytarabine assayed, and "area-under-the-curve"* calculated. Percent bioavailability was determined versus intravenous administration. Each animal received 2.5 mg cytarabine ±5.0 mg hexadecyl lysinate. Three animals were used for each experiment.

bioavailability ([1]; intestinal absorption of sodium cefoxitin, with 5 mg/dose promoter (hexadecyl lysinate) or without): 1%
bioavailability ([1]; pH 7, Percent Cefoxitin Bioavailability (mean ± SE), Duodenal, rats, 2.5 mg sodium cefoxitin ± 5.0 mg alcohol-lysine ester, 250 μl, pH 7, versus intravenous): 1%
bioavailability ([1]; pH 7, Percent Cefoxitin Bioavailability (mean ± SE), Rectal, rats, 2.5 mg sodium cefoxitin ± 5.0 mg alcohol-lysine ester, 250 μl, pH 7, versus intravenous): 2 ± 1.1%
bioavailability ([2]; duodenal, read-out: Percent Cefoxitin Bioavailability (mean ± SE), Duodenal): 1%
bioavailability ([2]; rectal, read-out: Percent Cefoxitin Bioavailability (mean ± SE), Rectal): 2 ± 1.1%
SMILES: CO[C@@]1(NC(=O)Cc2cccs2)C(=O)N2C(C(=O)O)=C(COC(N)=O)CS[C@@H]21 [Cefoxitin]

SMILES: Nc1ccn([C@@H]2O[C@H](CO)[C@@H](O)[C@@H]2O)c(=O)n1 [Cytarabine]
bioavailability ([3]; duodenal, read-out: Percent Cytarabine Bioavailability (mean ± SE), Duodenal): 5%
bioavailability ([3]; rectal, read-out: Percent Cytarabine Bioavailability (mean ± SE), Rectal): 6 ± 1.7%

SMILES: O=C(O)CN(CCN(CC(=O)O)CC(=O)O)CC(=O)O [EDTA]
effect as absorption promoter at 5 mg/dose (in words) [1]: ineffective

concentration dependence of absorption promoting effect (in words) ([2]; Example 9): act in a concentration dependent manner
SMILES: CCCCCCCCCCCCCCCCOC(=O)[C@@H](N)CCCCN [Hexadecyl lysinate]

SMILES: O=C(O)c1ccccc1O [salicylate]
effect as absorption promoter at 5 mg/dose (in words) [1]: ineffective
